Assay results as given in PubChem BioAssay (NCI).
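Step 1: Grow cells in 96-well plates. Step 2: Expose to compound for 48 hours at 5 concentrations. Step 3: Interpolate endpoints linearly; if unreached, use highest concentration. Here, GI50 denotes the concentration required for 50% inhibition of growth. TGI marks complete inhibition of growth.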

How the values were obtained:
Experiment in all cases: DTP human tumour cell line panel, 48 h
OVCAR-4 ovarian = test system: OVCAR-4 ovarian
IGROV1 ovarian = test system: IGROV1 ovarian
SF-539 CNS = test system: SF-539 CNS
U251 CNS = test system: U251 CNS
RXF 393 renal = test system: RXF 393 renal
A549 NSCLC = test system: A549 NSCLC
786-0 renal = test system: 786-0 renal
HS 578T breast = test system: HS 578T breast
UACC-62 melanoma = test system: UACC-62 melanoma
MDA-MB-231 breast = test system: MDA-MB-231 breast
EKVX NSCLC = test system: EKVX NSCLC
OVCAR-3 ovarian = test system: OVCAR-3 ovarian
NCI-H23 lung = test system: NCI-H23 lung
SF-295 CNS = test system: SF-295 CNS
HCT-116 colon = test system: HCT-116 colon
CCRF-CEM leukemia = test system: CCRF-CEM leukemia
UO-31 renal = test system: UO-31 renal
MOLT-4 leukemia = test system: MOLT-4 leukemia
HOP-62 NSCLC = test system: HOP-62 NSCLC
MALME-3M melanoma = test system: MALME-3M melanoma
ACHN renal = test system: ACHN renal
T-47D breast = test system: T-47D breast
NCI-H226 lung = test system: NCI-H226 lung
RPMI-8226 leukemia = test system: RPMI-8226 leukemia
OVCAR-8 ovarian = test system: OVCAR-8 ovarian
PC-3 prostate = test system: PC-3 prostate
TK-10 renal = test system: TK-10 renal
M14 melanoma = test system: M14 melanoma
SK-OV-3 ovarian = test system: SK-OV-3 ovarian
HL-60(TB) leukemia = test system: HL-60(TB) leukemia
SNB-19 CNS = test system: SNB-19 CNS
NCI/ADR-RES ovarian = test system: NCI/ADR-RES ovarian
MDA-MB-435 = test system: MDA-MB-435
NCI-H522 lung = test system: NCI-H522 lung
SK-MEL-28 melanoma = test system: SK-MEL-28 melanoma
SR leukemia = test system: SR leukemia
NCI-H460 lung = test system: NCI-H460 lung
SK-MEL-5 melanoma = test system: SK-MEL-5 melanoma
HT29 colon = test system: HT29 colon
A498 renal = test system: A498 renal
UACC-257 melanoma = test system: UACC-257 melanoma
SW-620 colon = test system: SW-620 colon
BT-549 breast = test system: BT-549 breast
K-562 leukemia = test system: K-562 leukemia
MCF7 breast = test system: MCF7 breast
COLO 205 colon = test system: COLO 205 colon
HOP-92 NSCLC = test system: HOP-92 NSCLC
DU-145 prostate = test system: DU-145 prostate
LOX IMVI melanoma = test system: LOX IMVI melanoma
SNB-75 CNS = test system: SNB-75 CNS
SN12C renal = test system: SN12C renal
OVCAR-5 ovarian = test system: OVCAR-5 ovarian
HCT-15 colon = test system: HCT-15 colon
KM12 colon = test system: KM12 colon
CAKI-1 renal = test system: CAKI-1 renal
SK-MEL-2 melanoma = test system: SK-MEL-2 melanoma
HCC-2998 colon = test system: HCC-2998 colon
SF-268 CNS = test system: SF-268 CNS

With `COc1cc2c(c(OC)c1O)C(=O)C(OC)C(c1ccc(O)c(O)c1)O2` (centres undefined) the GI50 (OVCAR-4 ovarian) was > 100000 nM, the TGI (OVCAR-4 ovarian) was > 100000 nM and the GI50 (IGROV1 ovarian) was 553 nM. The TGI (IGROV1 ovarian) was > 100000 nM, the GI50 (SF-539 CNS) was 79.8 nM and the TGI (SF-539 CNS) was 4560 nM. The GI50 (U251 CNS) was 418 nM, the TGI (U251 CNS) was > 100000 nM and the GI50 (RXF 393 renal) was 305 nM. For the same compound, the TGI (RXF 393 renal) was > 100000 nM, the GI50 (A549 NSCLC) was 1310 nM and the TGI (A549 NSCLC) was > 100000 nM. The GI50 (786-0 renal) was 1050 nM, the TGI (786-0 renal) was > 100000 nM and the GI50 (HS 578T breast) was 88.9 nM. The TGI (HS 578T breast) was 46100 nM, the GI50 (UACC-62 melanoma) was 345 nM and the TGI (UACC-62 melanoma) was > 100000 nM. The GI50 (MDA-MB-231 breast) was 554 nM, the TGI (MDA-MB-231 breast) was > 100000 nM and the GI50 (EKVX NSCLC) was 15200 nM. For the same compound, the TGI (EKVX NSCLC) was > 100000 nM, the GI50 (OVCAR-3 ovarian) was 343 nM and the TGI (OVCAR-3 ovarian) was > 32700 nM. The GI50 (NCI-H23 lung) was 385 nM, the TGI (NCI-H23 lung) was > 100000 nM and the GI50 (SF-295 CNS) was 471 nM. The TGI (SF-295 CNS) was 4950 nM, the GI50 (HCT-116 colon) was 396 nM and the TGI (HCT-116 colon) was > 100000 nM. The GI50 (CCRF-CEM leukemia) was 428 nM, the TGI (CCRF-CEM leukemia) was > 31000 nM and the GI50 (UO-31 renal) was 530 nM. For the same compound, the TGI (UO-31 renal) was > 100000 nM, the GI50 (MOLT-4 leukemia) was 482 nM and the TGI (MOLT-4 leukemia) was > 100000 nM. The GI50 (HOP-62 NSCLC) was 712 nM, the TGI (HOP-62 NSCLC) was > 100000 nM and the GI50 (MALME-3M melanoma) was 48300 nM. For the same compound, the TGI (MALME-3M melanoma) was > 100000 nM, the GI50 (ACHN renal) was 662 nM and the TGI (ACHN renal) was > 100000 nM. For the same compound, the GI50 (T-47D breast) was 513 nM, the TGI (T-47D breast) was 92400 nM and the GI50 (NCI-H226 lung) was 4800 nM. For the same compound, the TGI (NCI-H226 lung) was > 100000 nM, the GI50 (RPMI-8226 leukemia) was 285 nM and the TGI (RPMI-8226 leukemia) was 12900 nM. For the same compound, the GI50 (OVCAR-8 ovarian) was 484 nM, the TGI (OVCAR-8 ovarian) was > 100000 nM and the GI50 (PC-3 prostate) was 599 nM. The TGI (PC-3 prostate) was > 50600 nM, the GI50 (TK-10 renal) was 40000 nM and the TGI (TK-10 renal) was > 100000 nM. The GI50 (M14 melanoma) was 155 nM, the TGI (M14 melanoma) was > 100000 nM and the GI50 (SK-OV-3 ovarian) was 8230 nM. For the same compound, the TGI (SK-OV-3 ovarian) was > 100000 nM, the GI50 (HL-60(TB) leukemia) was 72 nM and the TGI (HL-60(TB) leukemia) was 3620 nM. The GI50 (SNB-19 CNS) was 275 nM, the TGI (SNB-19 CNS) was > 100000 nM and the GI50 (NCI/ADR-RES ovarian) was 203 nM. The TGI (NCI/ADR-RES ovarian) was > 100000 nM, the GI50 (MDA-MB-435) was 126 nM and the GI50 (NCI-H522 lung) was 59.9 nM. For the same compound, the GI50 (SK-MEL-28 melanoma) was 10100 nM, the TGI (SK-MEL-28 melanoma) was > 100000 nM and the GI50 (SR leukemia) was 68.9 nM. For the same compound, the TGI (SR leukemia) was > 100000 nM, the GI50 (NCI-H460 lung) was 364 nM and the TGI (NCI-H460 lung) was > 100000 nM. It also gave a GI50 (SK-MEL-5 melanoma) of 757 nM, a TGI (SK-MEL-5 melanoma) of 3260 nM and a GI50 (HT29 colon) of 6100 nM. The TGI (HT29 colon) was > 67700 nM, the GI50 (A498 renal) was 228 nM and the TGI (A498 renal) was 812 nM. For the same compound, the GI50 (UACC-257 melanoma) was > 100000 nM, the TGI (UACC-257 melanoma) was > 100000 nM and the GI50 (SW-620 colon) was 234 nM. For the same compound, the TGI (SW-620 colon) was > 100000 nM, the GI50 (BT-549 breast) was 362 nM and the TGI (BT-549 breast) was > 100000 nM. The GI50 (K-562 leukemia) was 48 nM, the TGI (K-562 leukemia) was > 100000 nM and the GI50 (MCF7 breast) was 391 nM. The TGI (MCF7 breast) was > 100000 nM, the GI50 (COLO 205 colon) was 23500 nM and the TGI (COLO 205 colon) was > 82800 nM. For the same compound, the GI50 (HOP-92 NSCLC) was 697 nM, the TGI (HOP-92 NSCLC) was > 28900 nM and the GI50 (DU-145 prostate) was 374 nM. The TGI (DU-145 prostate) was > 100000 nM, the GI50 (LOX IMVI melanoma) was 352 nM and the TGI (LOX IMVI melanoma) was > 100000 nM. The GI50 (SNB-75 CNS) was 40.5 nM, the TGI (SNB-75 CNS) was > 79300 nM and the GI50 (SN12C renal) was 426 nM. The TGI (SN12C renal) was > 100000 nM, the GI50 (OVCAR-5 ovarian) was 2270 nM and the TGI (OVCAR-5 ovarian) was > 100000 nM. The GI50 (HCT-15 colon) was 77.6 nM, the TGI (HCT-15 colon) was > 100000 nM and the GI50 (KM12 colon) was 515 nM. For the same compound, the TGI (KM12 colon) was > 100000 nM, the GI50 (CAKI-1 renal) was 336 nM and the TGI (CAKI-1 renal) was > 100000 nM. For the same compound, the GI50 (SK-MEL-2 melanoma) was 1280 nM, the TGI (SK-MEL-2 melanoma) was > 100000 nM and the GI50 (HCC-2998 colon) was 645 nM. The TGI (HCC-2998 colon) was > 100000 nM, the GI50 (SF-268 CNS) was 1500 nM and the TGI (SF-268 CNS) was > 100000 nM.
